Results published in patent US20260258035A1, “FIVE-MEMBERED AND SIX-MEMBERED NITROGEN-CONTAINING COMPOUND, AND INTERMEDIATE, PREPARATION METHOD AND USE THEREOF” (HANGZHOU SYNRX THERAPEUTICS BIOMEDICAL TECHNOLOGY CO., LTD., priority 2022, published 2026).
Read-outs that look alike come from different tables or passages of the source.

Key:
[1] = molecular target: PARG (Homo sapiens, UniProt Q86W56); experiment: Biochemical assay (PARG, TFMU-ADPr substrate)
[2] = system: HCC1806; experiment: Cell viability assay (CellTiter-Glo); format: cell-based, Human
[3] = Homo sapiens, HCC1806, 168 h, HCC1806, 7 days, CellTiter-Glo, read-out: IC50 (nM) in cell viability assay

PARG, sequence (Q86W56 whole entry): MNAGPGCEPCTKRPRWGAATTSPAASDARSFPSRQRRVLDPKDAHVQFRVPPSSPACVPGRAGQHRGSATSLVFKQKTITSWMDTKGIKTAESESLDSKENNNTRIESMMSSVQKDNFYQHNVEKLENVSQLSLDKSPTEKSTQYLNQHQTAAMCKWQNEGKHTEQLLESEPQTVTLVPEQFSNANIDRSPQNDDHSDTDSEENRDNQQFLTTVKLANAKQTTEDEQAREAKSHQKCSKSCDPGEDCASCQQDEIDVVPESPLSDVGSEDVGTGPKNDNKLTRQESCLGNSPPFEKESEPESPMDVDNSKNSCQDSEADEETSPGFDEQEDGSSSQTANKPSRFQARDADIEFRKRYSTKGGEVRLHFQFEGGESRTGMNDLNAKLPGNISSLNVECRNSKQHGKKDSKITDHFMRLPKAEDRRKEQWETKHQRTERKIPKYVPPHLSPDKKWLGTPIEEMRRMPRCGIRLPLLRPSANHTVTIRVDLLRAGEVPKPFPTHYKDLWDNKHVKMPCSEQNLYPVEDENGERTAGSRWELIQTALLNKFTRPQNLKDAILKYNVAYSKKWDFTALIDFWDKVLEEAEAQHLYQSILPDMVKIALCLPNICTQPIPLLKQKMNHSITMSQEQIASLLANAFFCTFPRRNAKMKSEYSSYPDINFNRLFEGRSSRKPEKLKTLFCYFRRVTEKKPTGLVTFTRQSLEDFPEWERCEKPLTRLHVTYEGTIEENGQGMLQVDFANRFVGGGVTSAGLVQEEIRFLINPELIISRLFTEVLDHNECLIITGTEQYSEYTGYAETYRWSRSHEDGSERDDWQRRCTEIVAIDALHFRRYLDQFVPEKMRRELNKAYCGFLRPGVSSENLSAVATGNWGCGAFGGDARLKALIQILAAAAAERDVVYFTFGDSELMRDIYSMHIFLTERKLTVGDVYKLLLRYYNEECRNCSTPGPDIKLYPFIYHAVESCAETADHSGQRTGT

Row | SMILES | IC50 ([1]; PARG, TFMU-ADPr substrate) [nM] | IC50 [2, 3] [nM] | other results
1 | CC1(NS(=O)(=O)c2cc(N3CCNC4(CC4)C3)c3cnc(-c4nnc(C(F)F)s4)n3c2)COC1 [Example 365, 3-(5-(difluoromethyl)-1,3,4-thiadiazol-2-yl)-N-(3-methyloxetan-3-yl)-8-(4,7-diazaspiro[2.5]octan-7-yl)imidazo[1,5-a]pyridine-6-sulfonamide] | 8.58 | 1070 | –
2 | Cn1ccnc1N1CCN(c2cc(S(=O)(=O)NC3(C#N)CC3)cn3c(-c4nnc(C(F)(F)F)s4)ncc23)CC1 [Example 238, N-(1-cyanocyclopropyl)-8-(4-(1-methyl-1H-imidazol-2-yl)piperazin-1-yl)-3-(5-(trifluoromethyl)-1,3,4-thiadiazol-2-yl)imidazo[1,5-a]pyridine-6-sulfonamide] | 38 | 15000 | –
3 | N#CC1(NS(=O)(=O)c2cc(N3CCN(C(=O)[C@@H]4CCNC4)CC3)c3cnc(-c4nnc(C(F)(F)F)s4)n3c2)CC1 [Example 271, (R)-N-(1-cyanocyclopropyl)-8-(4-(pyrrolidine-3-carbonyl)piperazin-1-yl)-3-(5-(trifluoromethyl)-1,3,4-thiadiazol-2-yl)imidazo[1,5-a]pyridine-6-sulfonamide] | 11.5 | 36200 | –
4 | O=C(C1CCN(c2cc(S(=O)(=O)NC3CC3)cn3c(-c4nnc(C(F)(F)F)s4)ncc23)CC1)N1CCC1 [Example 219, 8-(4-(azetidine-1-carbonyl)piperidin-1-yl)-N-cyclopropyl-3-(5-(trifluoromethyl)-1,3,4-thiadiazol-2-yl)imidazo[1,5-a]pyridine-6-sulfonamide] | 100 | 4610 | –
5 | CC(C)OCC1CN(c2cc(S(=O)(=O)NC3(C)COC3)cn3c(-c4nnc(C(F)F)s4)nc(Cl)c23)CCN1 (stereo not drawn) [Example 137, 1-chloro-3-(5-(difluoromethyl)-1,3,4-thiadiazol-2-yl)-8-(3-(isopropoxymethyl)piperazin-1-yl)-N-(3-methyloxetan-3-yl)imidazo[1,5-a]pyridine-6-sulfonamide] | 15.8 | 332 | –
6 | C[C@H]1CN(c2cc(S(=O)(=O)NC3(C)COC3)cn3c(-c4nnc(C(F)(F)F)s4)cnc23)C[C@H](C)N1 [Example 189, 8-((3S,5S)-3,5-dimethylpiperazin-1-yl)-N-(3-methyloxetan-3-yl)-3-(5-(trifluoromethyl)-1,3,4-thiadiazol-2-yl)imidazo[1,2-a]pyridine-6-sulfonamide] | 3.55 | 112 | –
7 | CC(C)C(=O)N1CCN(c2cc(S(=O)(=O)NC3(C)CC3)cn3c(-c4nnc(C(F)(F)F)s4)nnc23)CC1 [Example 388, 8-(4-isobutyrylpiperazin-1-yl)-N-(1-methylcyclopropyl)-3-(5-(trifluoromethyl)-1,3,4-thiadiazol-2-yl)-[1,2,4]triazolo[4,3-a]pyridine-6-sulfonamide] | 10 | 320 | –
8 | N#CC1(NS(=O)(=O)c2cc(N3CCN(C(=O)[C@@H]4CCCN4)CC3)c3cnc(-c4nnc(C(F)(F)F)s4)n3c2)CC1 [Example 270, (S)-N-(1-cyanocyclopropyl)-8-(4-prolylpiperazin-1-yl)-3-(5-(trifluoromethyl)-1,3,4-thiadiazol-2-yl)imidazo[1,5-a]pyridine-6-sulfonamide] | 91.2 | 35900 | –
9 | N#CC1(NS(=O)(=O)c2cc(N3CCN(C(=O)C4CCO4)CC3)c3cnc(-c4nnc(C(F)(F)F)s4)n3c2)CC1 (stereo not drawn) [Example 300, N-(1-cyanocyclopropyl)-8-(4-(oxetane-2-carbonyl)piperazin-1-yl)-3-(5-(trifluoromethyl)-1,3,4-thiadiazol-2-yl)imidazo[1,5-a]pyridine-6-sulfonamide] | 31.6 | – | IC50 ([2]; HCC1806, 7 days, CellTiter-Glo, read-out: IC50 (nM) in cell viability assay): 403 nM
10 | CC1(NS(=O)(=O)c2cc(N3CCN4C(=O)COCC4C3)c3cnc(-c4nnc(C(F)(F)F)s4)n3c2)COC1 (stereo not drawn) [Example 363, N-(3-methyloxetan-3-yl)-8-(4-oxohexahydropyrazino[2,1-c][1,4]oxazin-8(1H)-yl)-3-(5-(trifluoromethyl)-1,3,4-thiadiazol-2-yl)imidazo[1,5-a]pyridine-6-sulfonamide] | 1.71 | 63 | –
11 | N#CC1(NS(=O)(=O)c2cc(N3CCN(C(=O)C4(OCC(=O)O)CC4)CC3)c3cnc(-c4nnc(C(F)F)s4)n3c2)CC1 [Example 381, 2-(1-(4-(6-(N-(1-cyanocyclopropyl)sulfamoyl)-3-(5-(difluoromethyl)-1,3,4-thiadiazol-2-yl)imidazo[1,5-a]pyridin-8-yl)piperazine-1-carbonyl)cyclopropoxy)acetic acid] | 27.1 | 3630 | –
12 | N#CC1(NS(=O)(=O)c2ccc3c(C4=CCC5(CNC5)C4)nc(-c4nnc(C(F)F)s4)n3c2)CC1 [Example 22, N-(1-cyanocyclopropyl)-3-(5-(difluoromethyl)-1,3,4-thiadiazol-2-yl)-1-(2-azaspiro[3.4]oct-6-en-6-yl)imidazo[1,5-a]pyridine-6-sulfonamide] | 5.17 | – | IC50 ([1]; 4 nM PARG, 66.2 uM TFMU-ADPr, 3 min at room temperature): < 100 nM; IC50 ([2]; Homo sapiens, HCC1806, 168 h, read-out: IC50 (nM) in cell viability assay, HCC1806, 7 days, CellTiter-Glo): > 30000 nM; IC50 ([2]; read-out: IC50 (nM) in cell viability assay, HCC1806, 7 days, CellTiter-Glo): 30000 nM
13 | C[C@@H]1CN(c2cc(S(=O)(=O)NC3(C)CC3)cn3c(-c4nnc(C(F)F)s4)ncc23)CCN1C(=O)C1CNC1 [Example 315, (R)-8-(4-(azetidine-3-carbonyl)-3-methylpiperazin-1-yl)-3-(5-(difluoromethyl)-1,3,4-thiadiazol-2-yl)-N-(1-methylcyclopropyl)imidazo[1,5-a]pyridine-6-sulfonamide] | 0.96 | 5700 | –
14 | CC1(NS(=O)(=O)c2cc(N3CCN4C(=O)CCC4C3)c3cnc(-c4nnc(C(F)(F)F)s4)n3c2)COC1 (stereo not drawn) [Example 186, N-(3-methyloxetan-3-yl)-8-(6-oxohexahydropyrrolo[1,2-a]pyrazin-2(1H)-yl)-3-(5-(trifluoromethyl)-1,3,4-thiadiazol-2-yl)imidazo[1,5-a]pyridine-6-sulfonamide] | 5.62 | 485 | –
15 | CN1CC[C@@H]1C(=O)N1CCN(c2c(F)c(S(=O)(=O)NC3(C)CC3)cn3c(-c4nnc(C(F)(F)F)s4)ncc23)CC1 [Example 332, (R)-7-fluoro-8-(4-(1-methylazetidine-2-carbonyl)piperazin-1-yl)-N-(1-methylcyclopropyl)-3-(5-(trifluoromethyl)-1,3,4-thiadiazol-2-yl)imidazo[1,5-a]pyridine-6-sulfonamide] | 10.8 | 745 | –
16 | CCNC(=O)N1CCN(c2cc(S(=O)(=O)NC3(C)COC3)cn3c(-c4nnc(C(F)(F)F)s4)ncc23)CC1 [Example 362, N-ethyl-4-(6-(N-(3-methyloxetan-3-yl)sulfamoyl)-3-(5-(trifluoromethyl)-1,3,4-thiadiazol-2-yl)imidazo[1,5-a]pyridin-8-yl)piperazine-1-carboxamide] | 6.31 | 158 | –

The remaining compounds from weak to strong by IC50 ([1]; PARG, TFMU-ADPr substrate), led by results:

Row | IC50 ([1]; PARG, TFMU-ADPr substrate) [nM] | IC50 [2, 3] [nM] | SMILES | other results
17 | 28.8 | 2360 | CO[C@H]1C[C@H](C(=O)N2CCN(c3cc(S(=O)(=O)NC4(C#N)CC4)cn4c(-c5nnc(C(F)(F)F)s5)ncc34)CC2)C1 [Example 245, N-(1-cyanocyclopropyl)-8-(4-((1r,3r)-3-methoxycyclobutane-1-carbonyl)piperazin-1-yl)-3-(5-(trifluoromethyl)-1,3,4-thiadiazol-2-yl)imidazo[1,5-a]pyridine-6-sulfonamide] | –
18 | 16.6 | 2000 | CN1CC(C(=O)N2CCN(c3cc(S(=O)(=O)NC4(C#N)CC4)cn4c(-c5nnc(C(F)(F)F)s5)ncc34)CC2)C1 [Example 252, N-(1-cyanocyclopropyl)-8-(4-(1-methylazetidine-3-carbonyl)piperazin-1-yl)-3-(5-(trifluoromethyl)-1,3,4-thiadiazol-2-yl)imidazo[1,5-a]pyridine-6-sulfonamide] | –
19 | 14.5 | 151 | CO[C@H]1C[C@H](C(=O)N2CCN(c3cc(S(=O)(=O)NC4(C)CC4)cn4c(-c5nnc(C(F)(F)F)s5)ncc34)CC2)C1 [Example 290, 8-(4-((1r,3r)-3-methoxycyclobutane-1-carbonyl)piperazin-1-yl)-N-(1-methylcyclopropyl)-3-(5-(trifluoromethyl)-1,3,4-thiadiazol-2-yl)imidazo[1,5-a]pyridine-6-sulfonamide] | –
20 | 3.98 | 455 | CC1(NS(=O)(=O)c2cc(N3CCC(O)C(O)C3)c3cnc(-c4nnc(C(F)F)s4)n3c2)CC1 (stereo not drawn) [Example 349, 3-(5-(difluoromethyl)-1,3,4-thiadiazol-2-yl)-8-(3,4-dihydroxypiperidin-1-yl)-N-(1-methylcyclopropyl)imidazo[1,5-a]pyridine-6-sulfonamide] | –
21 | 2.15 | 1580 | CC1(NS(=O)(=O)c2cc(N3CCN(C(=O)c4c[nH]cn4)CC3)c3cnc(-c4nnc(C(F)F)s4)n3c2)CC1 [Example 340, 8-(4-(1H-imidazole-4-carbonyl)piperazin-1-yl)-3-(5-(difluoromethyl)-1,3,4-thiadiazol-2-yl)-N-(1-methylcyclopropyl)imidazo[1,5-a]pyridine-6-sulfonamide] | –
22 | 2.09 | 1670 | CC(C)C(=O)N1CCN(c2cc(S(=O)(=O)NC3(C#N)CC3)cn3c(-c4nnc(C(F)F)s4)ncc23)C[C@H]1CO [Example 222, (S)-N-(1-cyanocyclopropyl)-3-(5-(difluoromethyl)-1,3,4-thiadiazol-2-yl)-8-(3-(hydroxymethyl)-4-isobutyrylpiperazin-1-yl)imidazo[1,5-a]pyridine-6-sulfonamide] | –
23 | 0.19 | 6.58 | COC1(C(=O)N2CCN(c3cc(S(=O)(=O)NC4(C)CC4)cn4c(-c5nnc(C(F)F)s5)ncc34)C[C@H]2C)CC1 [Example 197, (R)-3-(5-(difluoromethyl)-1,3,4-thiadiazol-2-yl)-8-(4-(1-methoxycyclopropane-1-carbonyl)-3-methylpiperazin-1-yl)-N-(1-methylcyclopropyl)imidazo[1,5-a]pyridine-6-sulfonamide] | –
